Results published in US20250361268A1, “NOVEL ANTI-INFLAMMATORY PEPTIDE AND USE THEREOF” (NOVACELL TECHNOLOGY INC., priority 2022, published 2025).
Peptide text beside a SMILES is read from it.

Columns and labels:
[1] = target: T1, FPR2 (Homo sapiens, UniProt P25090); test: Change in calcium activity by peptide (Fura-2) in RBL cells overexpressing FPR2; assay type: cell-based; details: calcium activity (Fura-2), graded per Table 3, read-out: EC50 for [Ca^2+] FPR2
T1 construct: expressed in transfected cells; host or cells: RBL cells (RBL-FPR2)
T1 sequence (P25090 1-351): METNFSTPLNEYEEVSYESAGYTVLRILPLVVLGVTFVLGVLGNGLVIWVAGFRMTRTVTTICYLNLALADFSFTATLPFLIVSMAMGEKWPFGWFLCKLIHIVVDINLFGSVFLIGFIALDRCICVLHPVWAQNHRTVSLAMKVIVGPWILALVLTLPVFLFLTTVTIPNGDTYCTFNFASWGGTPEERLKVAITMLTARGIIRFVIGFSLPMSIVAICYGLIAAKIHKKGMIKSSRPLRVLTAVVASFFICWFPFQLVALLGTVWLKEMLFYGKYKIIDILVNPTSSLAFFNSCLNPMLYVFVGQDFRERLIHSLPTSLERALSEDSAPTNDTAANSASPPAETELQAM
Outline: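 Rat basophilic leukemia cells overexpressing FPR2 loaded with Fura-2 (37 °C 1 h, then RT 30 min dark); peptides (0.5 mM stocks in water or 50% DMSO) diluted in HBSS + 20 mM HEPES and added on a plate reader, intracellular Ca2+ change recorded.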

[2] = target: T2, FPR1 (Homo sapiens, UniProt P21462); test: Change in calcium activity by peptide, FPR1 activation effect; assay type: cell-based; details: calcium activity (Fura-2), graded per Table 3, read-out: EC50 for [Ca^2+] FPR1
T2 sequence (P21462 1-350): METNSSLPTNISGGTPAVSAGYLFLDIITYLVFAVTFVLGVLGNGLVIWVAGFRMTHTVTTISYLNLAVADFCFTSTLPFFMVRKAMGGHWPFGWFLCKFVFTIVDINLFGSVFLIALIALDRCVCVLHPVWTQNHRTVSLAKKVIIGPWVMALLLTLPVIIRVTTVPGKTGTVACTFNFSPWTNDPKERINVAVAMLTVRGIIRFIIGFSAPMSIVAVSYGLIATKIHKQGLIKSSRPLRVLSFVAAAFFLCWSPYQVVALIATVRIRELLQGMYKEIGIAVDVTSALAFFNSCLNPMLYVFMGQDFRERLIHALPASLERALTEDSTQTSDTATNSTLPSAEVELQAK
Outline: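 Cells plated at 3×10^5 per well the day before were loaded with Fura-2 for 1 h at 37 °C, then kept 30 min in the dark at room temperature. Peptide-evoked calcium changes were recorded on a FlexStation 3.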

[3] = tested on: RAW264.7 cell line; test: Cytokine inhibition ability: LPS-induced cytokine gene expression in RAW264.7 macrophages; assay type: cell-based, mouse; details: grade of reduction rate of gene expression, peptide 100 nM, LPS 200 ng/mL, 6 hours
Method: The present inventors observed the cytokine inhibition ability of the immunomodulatory peptide candidates prepared according to one example of the present invention. Specifically, to confirm whether the peptides reduce inflammatory responses in cells, changes in cytokine gene expression in cells upon inflammation was measured.
The present inventors used a RAW264.7 cell line, that is, mouse macrophages, and used lipopolysaccharide (LPS; Sigma-Aldrich, #L2630), which is the main component of a gram-negative bacterial cell wall, as a material causing an inflammatory response. A peptide that had been dissolved in water at 100 μM was prepared.
In the present experiment, the cells were cultured in a DMEM (Lonza, #BE12-604F) containing 10% FBS and 1% penicillin-streptomycin under conditions of 37° C. and 5% CO2.
The cells were plated in a 24-well plate (Costar, #3603) at a density of 2.5×10^5 cells/well. After 24 hours, the prepared cells were treated with the peptide at 100 nM. After incubation at 37° C. for 30 minutes, to induce inflammation, 200 ng/mL of LPS was treated. After incubation at 37° C. for 6 hours, the cells in a medium-free state were treated with TRIzol™ (Invitrogen, #15596018) to lyse the cells. Through the given experimental method, RNA was obtained, cDNA was produced using a reverse transcriptase (Promega, #M1705). Afterward, a cytokine expression level was measured using SYBR Green (Enzynomics, RT530) and mouse primers of each inflammatory cytokine gene (TNFα, IL-6, and IL-1β).

## CCCC(=O)N[C@@H](CCSC)C(=O)N[C@@H](CCCCN)C(=O)N[C@@H](Cc1ccc(O)cc1)C(=O)N[C@@H](CCCCN)C(=O)N1CCC[C@H]1C(=O)N[C@H](CCSC)C(N)=O [Peptide 72] (HELM PEPTIDE1{[CCCC(=O)[*:2]].M.K.Y.K.P.[dM].[am]}$$$$V2.0)
[1]
  EC50: 11 to 100 nM
[2]
  EC50: > 10000 nM
[3]
  Cytokine inhibition ability IL-1β: B (61%-80%)
  Cytokine inhibition ability IL-6: D (21%-40%)
  Cytokine inhibition ability TNFα: B (61%-80%)

## CCCCCCCC(=O)N[C@@H](CCCCN)C(=O)N[C@@H](CCSC)C(=O)N[C@@H](CCCCN)C(=O)N[C@@H](Cc1ccc(O)cc1)C(=O)N[C@@H](CCCCN)C(=O)N1CCC[C@H]1C(=O)N[C@H](CCSC)C(N)=O [Peptide 69] (HELM PEPTIDE1{[CCCCCCCC(=O)[*:2]].K.M.K.Y.K.P.[dM].[am]}$$$$V2.0)
[1]
  EC50: 11 to 100 nM
[2]
  EC50: > 10000 nM
[3]
  Cytokine inhibition ability IL-1β: A (81%-100%)
  Cytokine inhibition ability IL-6: C (41%-60%)
  Cytokine inhibition ability TNFα: B (61%-80%)

## CSCC[C@H](NC(=O)[C@H](CCCNC(=N)N)NC(C)=O)C(=O)N[C@@H](CCCNC(=N)N)C(=O)N[C@@H](Cc1ccc(O)cc1)C(=O)N[C@@H](CCCCN)C(=O)N[C@H](C(=O)N[C@H](CCSC)C(N)=O)C(C)C [Peptide 6] (HELM PEPTIDE1{[ac].R.M.R.Y.K.V.[dM].[am]}$$$$V2.0)
[1]
  EC50: < 10 nM
[2]
  EC50: > 10000 nM
[3]
  Cytokine inhibition ability IL-1β: A (81%-100%)
  Cytokine inhibition ability IL-6: C (41%-60%)
  Cytokine inhibition ability TNFα: A (81%-100%)
